Laboratory results reported in patent publication US6660885B2, “Polycyclic aryl and heteroaryl substituted benzenes useful for selective inhibition of the coagulation cascade” (Pharmacia Corporation, priority 2000, dated 2003).
Where two headings read alike, the source gives them in different places.

What was measured:
Type in all cases: biochemical
[1] = biological target: human thrombin (Homo sapiens, UniProt P00734); test: Thrombin Assay (chromogenic substrate, 405 nm); conditions: for IC50: read-out: Thrombin II IC50; for Thrombin II percent inhibition: at 30 (uM)
[2] = biological target: T1, trypsin, type IX from porcine pancreas (Sus scrofa, UniProt P00761); test: Trypsin Assay (L-BAPNA, 405 nm)
T1 construct: purchased Sigma, St. Louis Mo; host or cells: porcine pancreas
Protocol: 5 ug/ml trypsin, type IX^0 from porcine pancreas and 0.375 mM N-α-Benzoyl-L-arginine-p-nitroanilide (L-BAPNA) are added to a 96-well assay plate containing either inhibitor or buffer (50 mM Tris-HCl, pH 8.0, 100 mM NaCl, 0.1% BSA). The reactions, in a final volume of 100 ul are measured immediately at 405 nm to determine background absorbance. The plate is incubated at room temperature for 60 min, at which time the rate of hydrolysis of the substrate is measured by monitoring the reaction at 405 nm for the release of p-nitroaniline. Percent inhibition of trypsin activity is calculated from OD405nm value from the experimental and control sample.
(§1) Recombinant soluble TF, consisting of amino acids 1-219 of the mature protein sequence was expressed in E. coli and purified using a Mono Q Sepharose FPLC. Recombinant human Vlla was purchased from American Diagnostica, Greenwich Conn. and chromogenic substrate N-Methylsulfonyl-D-phe-gly-arg-p-nitroaniline was prepared by American Peptide Company, Inc., Sunnyvale, Calif. Factor Xa was obtained from Enzyme Research Laboratories, South Bend Ind., thrombin from Calbiochem, La Jolla, Calif., and trypsin and L-BAPNA from Sigma, St. Louis Mo. The chromogenic substrates S-2765 and S-2238 were purchased from Chromogenix, Sweden.

[3] = biological target: T2, recombinant soluble tissue factor and recombinant human factor VIIa (TF-VIIa) (Homo sapiens, UniProt P08709); test: TF-VIIa Assay (chromogenic substrate hydrolysis, 405 nm); conditions: read-out: IF-VIIA IC50
T2 construct: purchased American Diagnostica, Greenwich Conn; soluble TF made in house in E. coli

[4] = biological target: T3, human factor Xa (Homo sapiens, UniProt P00742); test: Xa Assay (chromogenic substrate S-2765, 405 nm)
T3 construct: leads from XII to XIIa to XIa to IXa and to the conversion of X to Xa; purchased Enzyme Research Laboratories, South Bend Ind
Protocol: 0.3 nM human factor Xa and 0.15 mM N-a-Benzyloxycarbonyl-D-arginyl-L-glycyl-L-arginine-p-nitroaniline-dihydrochloride (S-2765) are added to a 96-well assay plate containing either inhibitor or buffer (50 mM Tris-HCl, pH 8.0, 100 mM NaCl, 0.1% BSA). The reaction, in a final volume of 100 ul is measured immediately at 405 nm to determine background absorbance. The plate is incubated at room temperature for 60 min, at which time the rate of hydrolysis of the substrate is measured by monitoring the reaction at 405 nm for the release of p-nitroaniline. Percent inhibition of Xa activity is calculated from OD405nm value from the experimental and control sample.
as §1

T2 sequence (P08709 213-466 limits assumed): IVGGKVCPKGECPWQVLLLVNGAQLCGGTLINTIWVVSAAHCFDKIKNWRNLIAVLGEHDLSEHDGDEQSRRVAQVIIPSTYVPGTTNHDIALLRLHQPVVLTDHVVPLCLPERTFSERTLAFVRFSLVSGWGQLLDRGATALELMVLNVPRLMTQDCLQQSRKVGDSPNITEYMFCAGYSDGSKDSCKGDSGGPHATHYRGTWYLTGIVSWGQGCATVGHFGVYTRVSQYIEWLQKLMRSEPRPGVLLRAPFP
T2 sequence (P08709 61-212 limits assumed): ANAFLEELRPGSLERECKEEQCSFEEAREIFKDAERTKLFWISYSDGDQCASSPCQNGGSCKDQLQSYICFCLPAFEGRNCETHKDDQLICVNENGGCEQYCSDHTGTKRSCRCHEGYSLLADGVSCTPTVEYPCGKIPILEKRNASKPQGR
T2 sequence (P13726 33-251 partner limits assumed): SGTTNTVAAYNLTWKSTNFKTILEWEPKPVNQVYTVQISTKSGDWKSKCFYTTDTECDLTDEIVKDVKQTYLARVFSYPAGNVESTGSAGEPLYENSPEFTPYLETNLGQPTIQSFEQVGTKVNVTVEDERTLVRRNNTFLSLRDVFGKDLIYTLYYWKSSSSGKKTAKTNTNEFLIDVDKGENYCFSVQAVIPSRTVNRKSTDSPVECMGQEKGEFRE
T1 sequence (P00761 9-231): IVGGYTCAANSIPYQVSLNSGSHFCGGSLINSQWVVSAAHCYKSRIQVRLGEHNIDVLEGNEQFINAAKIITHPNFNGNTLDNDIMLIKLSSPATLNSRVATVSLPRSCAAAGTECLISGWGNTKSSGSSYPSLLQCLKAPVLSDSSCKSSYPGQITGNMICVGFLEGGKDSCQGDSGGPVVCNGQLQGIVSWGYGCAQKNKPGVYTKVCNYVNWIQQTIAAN
T3 sequence (P00742 235-488 limits assumed): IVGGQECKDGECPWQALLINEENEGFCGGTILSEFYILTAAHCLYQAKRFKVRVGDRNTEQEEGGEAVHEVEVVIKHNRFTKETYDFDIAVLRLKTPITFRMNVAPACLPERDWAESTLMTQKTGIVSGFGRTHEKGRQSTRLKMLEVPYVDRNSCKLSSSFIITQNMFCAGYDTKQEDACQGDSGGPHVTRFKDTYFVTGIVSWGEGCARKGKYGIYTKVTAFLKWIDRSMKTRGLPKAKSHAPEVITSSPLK
T3 sequence (P00742 41-179 limits assumed): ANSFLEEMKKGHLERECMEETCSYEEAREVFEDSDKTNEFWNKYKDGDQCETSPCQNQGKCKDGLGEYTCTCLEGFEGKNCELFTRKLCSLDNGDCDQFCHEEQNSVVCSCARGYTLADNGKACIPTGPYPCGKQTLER

Compound | IC50 [1] | IC50 ([2]; read-out: Trpysin II IC50) | IC50 [3] | IC50 [4] | Factor Xa percent inhibition ([4]; at 30 (uM)) | Factor Xa percent inhibition ([4]; concentration not given) | Thrombin II percent inhibition [1] | IC50 [2]
O=C(NCC1CCNCC1)c1cc(NS(=O)(=O)Cc2ccccc2)ccc1Sc1ccccc1 [Example 1] | > 30 µM | 0.3 µM |  | > 30 µM |  |  |  | 
O=C(Cc1c(F)ccc(NS(=O)(=O)Cc2ccccc2)c1F)NCC1CCNCC1 [Example 9] | > 30 µM | 0.3 µM |  |  |  |  |  | 
O=C(Cc1c(F)ccc(NS(=O)(=O)Cc2ccccc2)c1F)NCCCn1ccnc1 [Example 12] | > 30 µM | > 30 µM |  |  |  |  |  | 
CN(C)c1ccc(CNC(=O)Cc2c(F)ccc(NS(=O)(=O)Cc3ccccc3)c2F)cc1 [Example 10] | > 30 µM | > 30 µM |  | > 30 µM |  |  |  | 
Cl.N=C(N)c1ccc(CNC(=O)c2cc(NS(=O)(=O)Cc3ccccc3)ccc2Sc2ccccc2)cc1 [Example 4] |  |  |  |  |  |  | 22% at 30 | 0.3 µM
CN(C)c1ccc(CNC(=O)c2cc(NS(=O)(=O)Cc3ccccc3)ccc2Sc2ccccc2)cc1 [Example 2] | > 30 µM | > 30 µM |  |  |  |  |  | 
N=C(N)c1cccc(CNC(=O)c2cc(NS(=O)(=O)Cc3ccccc3)ccc2Sc2ccccc2)c1 [Example 5] |  | 23 µM | > 30 µM |  | 7% at 30 |  | 43% at 30 | 
N=C(N)NCCCCNC(=O)c1cc(NS(=O)(=O)Cc2ccccc2)ccc1Sc1ccccc1 [Example 7] | > 100 µM | > 100 µM | > 100 µM | > 100 µM |  |  |  | 
O=C(NCc1ccncc1)c1cc(NS(=O)(=O)Cc2ccccc2)ccc1Sc1ccccc1 [Example 3] | > 30 µM | > 30 µM |  |  |  |  |  | 
N=C(N)c1cccc(CNC(=O)Cc2c(F)ccc(NS(=O)(=O)Cc3ccccc3)c2F)c1 [Example 13] | > 30 µM | > 30 µM |  | > 30 µM |  |  |  | 
O=C(Cc1c(F)ccc(NS(=O)(=O)Cc2ccccc2)c1F)NCc1ccncc1 [Example 11] | > 30 µM | > 30 µM |  | > 30 µM |  |  |  | 
N=C(N)NCCCNC(=O)c1cc(NS(=O)(=O)Cc2ccccc2)ccc1Sc1ccccc1 [Example 6] | > 100 µM | > 100 µM | > 100 µM | > 100 µM |  |  |  | 
N=C(N)NCCCCCNC(=O)c1cc(NS(=O)(=O)Cc2ccccc2)ccc1Sc1ccccc1 [Example 8] | > 100 µM | > 100 µM | > 100 µM | > 100 µM |  |  |  | 

Now from value to molecule, other results behind:

IC50 [1] | IC50 ([2]; read-out: Trpysin II IC50) | IC50 [3] | IC50 [4] | Factor Xa percent inhibition ([4]; at 30 (uM)) | Factor Xa percent inhibition ([4]; concentration not given) | Compound | Thrombin II percent inhibition [1] | IC50 [2]
9.5 µM | 0.5 µM | 25 µM | > 30 µM |  |  | COc1c(NCCc2ccccc2)ccc(-c2ccccc2)c1CC(=O)NCc1ccc(C(=N)N)cc1 [Example 18] |  | 
> 30 µM | > 30 µM |  |  |  |  | N=C(N)NCCCCCNC(=O)Cc1c(F)ccc(NS(=O)(=O)Cc2ccccc2)c1F [Example 15] |  | 
9 µM | 0.2 µM | 0.67 µM | > 30 µM |  |  | N=C(N)c1ccc(CNC(=O)Cc2c(-c3cccc(N)c3)ccc(NCc3ccccc3)c2F)cc1 [Example 20] |  | 
1.6 µM | 0.8 µM | 16.4 µM |  | 1% at 30 |  | N=C(N)c1ccc(CNC(=O)Cc2c(F)ccc(NCCc3ccccc3)c2F)cc1 [Example 16] |  | 
~30 µM | 7.3 µM |  |  |  |  | N=C(N)c1ccc(CNC(=O)Cc2c(F)ccc(NS(=O)(=O)Cc3ccccc3)c2F)cc1 [Example 14] |  | 
7 µM | 0.2 µM | 2.7 µM |  |  |  | N=C(N)c1ccc(CNC(=O)Cc2c(-c3ccccc3)ccc(NCCc3ccccc3)c2O)cc1 [Example 19] |  | 
 | < 0.04 µM |  |  |  | 18% | CC(C)Nc1ccc(-c2cccc(N)c2)c(CC(=O)NCc2ccc(C(=N)N)cc2)c1F [Example 21] |  | 
7.9 µM | 0.1 µM | 14.7 µM |  |  |  | COc1c(NC(C)C)ccc(-c2ccccc2)c1CC(=O)NCc1ccc(C(=N)N)cc1 [Example 22] |  | 
7 µM | 0.2 µM | 4 µM |  |  |  | N=C(N)c1ccc(CNC(=O)Cc2c(-c3ccccc3)ccc(NCCc3ccccc3)c2F)cc1 [Example 17] |  | 
